# Read-outs that look alike come from different tables or passages of the source.
# Tests used:
# pKa = type: physicochemical
# solubility = type: physicochemical; settings: at 25° C. and ionic strength 0.15 M; read-out: solubility (S)
# logP = type: physicochemical
# [1] = molecular target: T1, Serotonin Transporter (SERT) (Homo sapiens, UniProt P31645); settings: human recombinant HEK-293 cells, historical value for the KD of the ligand, cited from earlier work
# T1 construct: expressed in transfected cells; host or cells: HEK-293 cells
# [2] = molecular target: T2, Norepinephrine Transporter (NET) (Homo sapiens, UniProt P23975); settings: read-out: KD of the radioligand; human recombinant MDCK cells; historical value for the KD of the ligand; cited from earlier work
# T2 construct: expressed in transfected cells; host or cells: MDCK cells
# mice = test: Tail-suspension test in mice: evaluation of antidepressive efficacy; type: in vivo; settings: 10 mg/kg i.p., 30 min prior to testing, vehicle control 70%
# Source text: The aim of this study was to evaluate potential antidepressant activity of selected compounds Formula I. The tail suspension test has been routinely employed to test potential antidepressant compounds (See H. G. Vogel and W. H. Vogel, Drug Discovery and Evaluation, Pharmacological Assays, Springer-Verlag, 1997, p 304-305). The percentage of drug-treated animals showing the passive behavior (i.e., the immobility that mice display after active and unsuccessful attempts to escape when suspended by the tail) is measured and compared with vehicle-treated control animals. The duration of immobility is recorded for about 5 minutes. Mice are considered immobile when they hang passively and completely motionless for at least 1 minute. Active antidepressants reduce the immobility.
# Groups of 9 animals were treated with compounds encompassed by Formula I (0.1-10 mg/kg; s.c.), or fluoxetine (10 mg/kg i.p.), and one group of 15 animals was treated with the vehicle by s.c. injection as a […] control. All animals were treated for 30 min prior to testing. The percentage of drug-treated animals showing passive behavior was determined and compared with vehicle-treated controls. […]
# T1 sequence (P31645 whole entry): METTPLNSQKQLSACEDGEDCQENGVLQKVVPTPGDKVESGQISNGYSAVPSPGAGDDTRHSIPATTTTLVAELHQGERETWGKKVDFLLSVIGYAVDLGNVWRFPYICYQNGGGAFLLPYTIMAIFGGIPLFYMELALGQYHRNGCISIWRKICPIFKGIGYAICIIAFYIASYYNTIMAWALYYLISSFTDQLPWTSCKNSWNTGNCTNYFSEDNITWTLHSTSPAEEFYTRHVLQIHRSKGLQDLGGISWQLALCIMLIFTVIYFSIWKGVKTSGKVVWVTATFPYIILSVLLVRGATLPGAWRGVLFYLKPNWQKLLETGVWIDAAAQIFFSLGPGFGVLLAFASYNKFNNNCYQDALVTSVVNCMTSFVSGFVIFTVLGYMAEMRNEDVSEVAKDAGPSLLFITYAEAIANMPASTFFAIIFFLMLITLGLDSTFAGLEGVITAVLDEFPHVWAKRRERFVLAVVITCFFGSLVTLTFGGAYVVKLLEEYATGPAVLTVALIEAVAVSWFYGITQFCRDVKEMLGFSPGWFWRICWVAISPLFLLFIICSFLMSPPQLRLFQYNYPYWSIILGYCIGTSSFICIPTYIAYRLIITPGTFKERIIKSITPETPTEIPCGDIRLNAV
# T2 sequence (P23975 whole entry): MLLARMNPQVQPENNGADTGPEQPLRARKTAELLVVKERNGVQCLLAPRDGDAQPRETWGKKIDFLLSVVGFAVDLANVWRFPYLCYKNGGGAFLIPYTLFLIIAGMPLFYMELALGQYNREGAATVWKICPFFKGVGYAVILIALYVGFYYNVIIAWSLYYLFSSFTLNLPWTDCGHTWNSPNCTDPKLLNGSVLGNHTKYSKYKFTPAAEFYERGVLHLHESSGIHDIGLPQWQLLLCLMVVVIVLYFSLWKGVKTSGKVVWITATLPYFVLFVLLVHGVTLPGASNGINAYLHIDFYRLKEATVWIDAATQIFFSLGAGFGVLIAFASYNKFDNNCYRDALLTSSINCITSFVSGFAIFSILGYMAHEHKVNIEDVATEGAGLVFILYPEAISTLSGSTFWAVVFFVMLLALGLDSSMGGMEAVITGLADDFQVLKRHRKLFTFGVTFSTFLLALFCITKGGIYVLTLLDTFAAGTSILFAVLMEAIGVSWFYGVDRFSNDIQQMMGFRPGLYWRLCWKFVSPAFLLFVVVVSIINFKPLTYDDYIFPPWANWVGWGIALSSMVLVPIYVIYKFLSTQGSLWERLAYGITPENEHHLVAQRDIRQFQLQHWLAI
structure (smiles),measurement,setting,value
"CCOC(=O)c1cc2c(s1)-c1cc(Cl)cc(OCCCN(C)C)c1Oc1ccccc1-2.O=C(O)CC(O)(CC(=O)O)C(=O)O [Example 2, 11-Chloro-9-(3-dimethylamino-propoxy)-8-oxa-1-thia-dibenzo[e,h]azulene-2-carboxylic acid ethyl ester citrate salt]",pKa,pKa,6.9
same,solubility,solubility,167 mg/mL
same,logP,logP,4.5
"COC(=O)[C@H]1[C@@H](c2ccc(I)cc2)C[C@@H]2CC[C@H]1N2C [[^125I] RTI-55, 3 beta-(4-iodophenyl)tropan-2 beta-carboxylic acid methyl ester]",Kd,[1]; read-out: KD1 of the radioligand,0.17 nM
same,Kd,[1]; read-out: KD2 of the radioligand,2200 nM
same,Kd,[2],24 nM
CNCCC(Oc1ccc(C(F)(F)F)cc1)c1ccccc1 (stereo not shown) [fluoxetine],percentage of animals depressive (exhibiting passive behavior),mice,22%

# From US20090221687A1, “Tetracyclic Monoamine Reuptake Inhibitors for Treatment of Cns Diseases and Disorders” (priority 2005, published 2009)
